Laboratory results taken from article PMC5894102 (Journal of medicinal chemistry, 2017).
pIC50: −log10 of the molar value.

What was measured:
[1] = in vitro; conditions: human, A673 cells
[2] = test system: CYP; conditions: cited from earlier work
[3] = cited from earlier work
[4] = biological target: human lactate dehydrogenase 5 (LDHA) (Homo sapiens, UniProt P00338); assay: LDHA biochemical assay
[5] = biological target: LDHA (Homo sapiens, UniProt P00338); format: cell-based
[6] = Mouse pharmacokinetic study; format: in vivo, CD1 mice; conditions: male, CD1, mouse, plasma, iv, 2 mg/kg
[7] = test system: MiaPaCa-2 cells; conditions: 120 hours

Question: Which IC50 at 48 h [1] does the source give for `COc1ncc(-c2ccc3c(Nc4cc(Oc5cc(F)cc(F)c5)cc(C(=O)O)c4)c(S(=O)(=O)NC4CC4)cnc3c2)c(OC)n1` [Analog 2] here?
Answer: > 57 µM

Question: What does the source list for `O=C(O)c1csc(-n2nc(-c3ccccc3)cc2C(F)(F)F)n1` [Analog 5]?
Answer: CYP inhibition [2]: no appreciable CYP inhibition; stability in human plasma [3]: stable in human plasma

Question: For `O=C(O)c1csc(-n2nc(-c3ccccc3)cc2O)n1` [Analog 11], which “improvement in potency on replacing CF3 by OH” value [4] is on record?
Answer: > 100 fold

Question: With `O=C(O)c1csc(-n2nc(-c3ccc(F)cc3)cc2O)n1` [Analog 16] as the compound, how does the pIC50 [4] read?
Answer: 6.82

Question: For `NS(=O)(=O)c1ccc(Cc2cn(-c3nc(C(=O)O)cs3)nc2-c2ccc(F)c(F)c2)cc1` [Analog 42], which IC50 at 48 h [1] is on record?
Answer: > 57 µM

Question: With `NS(=O)(=O)c1ccc(Cc2cn(-c3nc(C(=O)O)cs3)nc2-c2cccc(-c3ccccc3)c2)cc1` [Analog 44] as the compound, how does the “CETSA: Cellular LDHA stabilization Max stab. (norm'd)” value ([5]; A673 cells, Western blot band intensity scaled to maximum response of 44) read?
Answer: 100.0

Question: With `NS(=O)(=O)c1ccc(Cc2c(-c3cccc(-c4ccccc4)c3)nn(-c3nc(C(=O)O)cs3)c2C2CC2)cc1` [Analog 61] as the compound, how does the half-life [6] read?
Answer: 51 min

Question: For `NS(=O)(=O)c1ccc(Cc2c(-c3ccccc3)nn(-c3nc(C(=O)O)cs3)c2CC2CC2)cc1` [Analog 62], which “CETSA: Cellular LDHA stabilization AUC (norm'd)” value [5] is on record?
Answer: 100.00

Question: Which “concentration with nearly complete arrest of cell growth” value [7] does the source give for `NS(=O)(=O)c1ccc(Cc2c(-c3cccc(-c4ccccc4)c3)nn(-c3nc(C(=O)O)cs3)c2CC2CC2)cc1` [Analog 63] here?
Answer: 20 µM

Question: What about the “lowest concentration with effects on cellular proliferation” value ([7]; dose-response) of the same compound?
Answer: 250 nM
